Test results published in patent US20070156342A1, “Pseudo-sequence method for comparing 7tm receptors with respect to the physico-chemical properties of their binding sites” (7TM PHARMA A/S, priority 2003, published 2007).

Molecular target: T1, GRP44 (CRTH2) (Homo sapiens, UniProt Q9Y5Y4)
T1 sequence (Q9Y5Y4 1-395): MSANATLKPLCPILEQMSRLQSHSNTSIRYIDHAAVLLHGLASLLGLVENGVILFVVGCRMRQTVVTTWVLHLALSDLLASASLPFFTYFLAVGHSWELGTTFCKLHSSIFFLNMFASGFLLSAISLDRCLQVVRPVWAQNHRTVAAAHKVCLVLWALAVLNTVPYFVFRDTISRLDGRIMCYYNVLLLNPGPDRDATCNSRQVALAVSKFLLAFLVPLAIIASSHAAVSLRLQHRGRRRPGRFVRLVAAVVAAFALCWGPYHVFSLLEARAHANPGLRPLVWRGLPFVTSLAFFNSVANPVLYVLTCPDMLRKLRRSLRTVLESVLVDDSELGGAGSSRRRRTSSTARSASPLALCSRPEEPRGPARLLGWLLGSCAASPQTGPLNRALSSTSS
Test: Inhibition of [3H]PGD2 at GRP44 (CRTH2)
Assay type: binding
Source text: A model using theoretical size and electronic descriptors ranked the angiotensin AT2 and angiotensin AT1 receptors to be closely related to GRP44 (CRTH2) with respect to ligand-binding features in the binding site.

binding to CRTH2 (in words) (angiotensin II ligand found via the related receptor): also binding to CRTH2
IC50 (radioligand [3H]PGD2): 2100 nM
SMILES: CCOc1nc2cccc(C(=O)O)c2n1Cc1ccc(-c2ccccc2-c2nnn[nH]2)cc1 [candesartan]
